{"source": "patent US20260103760A1", "about": "“ANALYTIC METHOD FOR DIAGNOSING OVARIAN CANCER RESISTANT TO PACLITAXEL” (CHA UNIVERSITY INDUSTRY-ACADEMIC COOPERATION FOUNDATION, priority 2022, published 2026)", "system": "Taxol-resistant ovarian cancer cell line SKOV3/TAX compared to ovarian cancer cell line SKOV3", "experiment": "Cell viability of SKOV3 and SKOV3/TAX cultured in medium containing Taxol (cell counting kit-8)", "assay_type": "cell-based", "conditions": "medium containing 30 μM Taxol, FIG. 1", "protocol": "Ovarian cancer cell line SKOV3 (HTB-77™, Sigma-Aldrich, St. Louis, MO, USA) was cultured in a DMEM medium (31800-022, Gibco, Grand Island, NY, USA) containing 5 μM Taxol, 10% FBS and 1% Antibiotic-Antimycotic (15240062, Gibco, Grand Island, NY, USA) at 37° C. in a 5% CO2 incubator for 1 month. The cells were harvested and cultured continuously in a 5% CO2 incubator at 37° C., in a medium containing 10 µM Taxol for 2 months, in a medium containing 20 µM Taxol for 2 months, and in a medium containing 30 μM Taxol for 2 months (total for 7 months), and then the viable cell line was isolated. The isolated cell line was named SKOV3/TAX and the following experiments were performed using as an ovarian cancer cell line resistant to Taxol. In order to compare Taxol resistance, the SKOV3 and SKOV3/TAX cells were cultured at 5,000 cells per well in a 96-well plate in a medium containing Taxol at a concentration of 30 μM per well. Then, cell viabilities were measured at 0, 24, and 48 hours with a cell counting kit-8 (CK04-11, Dojindo, Rockville, MD, USA)."}
{"smiles": "CC(=O)O[C@H]1C(=O)[C@@]2(C)[C@H]([C@H](OC(=O)c3ccccc3)[C@]3(O)C[C@H](OC(=O)[C@H](O)[C@@H](NC(=O)c4ccccc4)c4ccccc4)C(C)=C1C3(C)C)[C@]1(OC(C)=O)CO[C@@H]1C[C@@H]2O", "note": "[Taxol, paclitaxel]", "values": [{"measurement": "cell viability of SKOV3/TAX compared to SKOV3 (increase)", "setting": "24 hours, 5,000 cells per well", "value": "approximately 1.67 fold"}, {"measurement": "cell viability of SKOV3/TAX compared to SKOV3 (increase)", "setting": "48 hours, 5,000 cells per well", "value": "approximately 2.40 fold"}]}
